The text below walks through data of paper PMC9919699, “A Comprehensive Approach to Derivatization: Elemental Composition, Biochemical, and In Silico Studies of Metformin Derivatives Containing Copper and Zinc Complexes” (Molecules, 2023).

Broadly, the % Inhibition is the relative decrease from the control value, in per cent. A higher % Inhibition goes with a response far below the control. What is called IC50 is the concentration that gives 50% inhibition.

One experiment deals with α-glucosidase. The experiment can be described thus: α-glucosidase enzyme inhibition assay (starch substrate, anthrone reagent, 640 nm). The experiment is classed as biochemical. Here is the method: The α-glucosidase-inhibitory activity of all derivatives of metformin was tested using the method previously described. Three test tubes were marked as test (T), blank (B), and control (C). Then, 200 µL of substrate (starch) and enzyme (α-glucosidase) was added to test tubes T and C. The contents were mixed well, and then the test tubes were incubated at 37 °C for 30 min. After incubation, trichloroacetic acid was added to all test tubes, which were then centrifuged for 10 min. Free glucose was available after the reaction with anthrone reagent (1.5 mL). The contents in the test tubes were boiled for 15 min, and the absorbance was read at a wavelength at 640 nm. The percentage inhibition was calculated using the following formula:Percentage inhibition = OD of control − OD of test tube/OD of control × 100.

The next experiment concerns α-amylase. The experiment can be described thus: α-amylase enzyme inhibition assay (starch, dinitro-salicylic acid, 540 nm). To be noted: for IC50: read-out: IC50. The experiment is classed as biochemical. On the procedure:
All derivatives of metformin were analyzed for serum amylase inhibitory activity using the Yukihoko Hara method. Three test tubes were labeled as blank (B), test (T), and control (C). Then, 2.5 mL of phosphate buffer (pH 6.8) was added to each test tube. Next, 1 mL of starch and 1 mL of 2 N sodium chloride solution were added to each test tube. The test tubes were incubated at 37 °C for 10 min. After incubation, 0.5 mL of derivatives was added to test tube T, followed by 0.2 mL of enzyme (α-amylase). All contents were mixed well, and then the tube was incubated at 37 °C for 10 min. In the control test tube, normal saline (2 N), starch solution (1 mL), and enzyme solution (0.2 mL) were added before incubating at 37 °C for 10 min. In the blank test tube, only 5.7 mL of distilled water was added. Dinitro-salicylic acid (0.2 mL) was added to all test tubes. The contents were mixed well, and the test tubes were kept in a boiling water bath for 15 min. The intensity of reddish orange was read at 540 nm. The percentage inhibitory action of serum amylase was calculated using the following formula:Percentage inhibition = OD of control − OD of test tube/OD of control × 100.

Setting [1] is: 250 µg/mL, Table 6 (MZn series).
The mark [2] stands for this setting: 500 µg/mL, Table 6 (MZn series).
[3] abbreviates: 1000 µg/mL, Table 6 (MZn series).
[4] abbreviates: 250 µg/mL, Table 9 (MZn series).
[5] abbreviates: 500 µg/mL, Table 9 (MZn series).
[6] abbreviates: 1000 µg/mL, Table 9 (MZn series).
[7] abbreviates: 250 µg/mL, Table 4 (Met series).
The mark [8] stands for this setting: 500 µg/mL, Table 4 (Met series).
Setting [9] is: 1000 µg/mL, Table 4 (Met series).
The mark [10] stands for this setting: 250 µg/mL, Table 7 (Met series).
[11] abbreviates: 500 µg/mL, Table 7 (Met series).
The mark [12] stands for this setting: 1000 µg/mL, Table 7 (Met series).
[13] abbreviates: Table 4 (Met series), read-out: IC50.

Where two headings read alike, the source gives them in different places.

For the compound `CC(C)=NC(=N)NC(=N)N(C)C.CC(C)=NC(=N)NC(=N)N(C)C.O.O.O.O.O.O=S(=O)([O-])[O-].[Zn+2]` [MZn5], the “% Inhibition” value in the experiment on α-glucosidase (setting [1]) stood at 32.86 ± 0.15%; in the experiment with α-glucosidase (setting [2]), 38.87 ± 0.10%; in the experiment with α-glucosidase (setting [3]), 49.46 ± 0.20%; in the experiment with α-amylase (setting [4]) it was 15.44 ± 0.28%; with α-amylase (setting [5]), 37.60 ± 0.28%; in the experiment on α-amylase (setting [6]), 58.35 ± 0.17%. Further, the half-inhibitory concentration (IC50) on α-amylase (Table 9 (MZn series)) worked out at 560 µM.
Take `CC(=NC(=N)NC(=N)N(C)C)c1ccccc1.CC(=NC(=N)NC(=N)N(C)C)c1ccccc1.O.O.O.O.O.O=S(=O)([O-])[O-].[Zn+2]` [MZn6]: the “% Inhibition” value in the experiment on α-glucosidase (setting [1]) was found to be 36.67 ± 0.26%; with α-glucosidase (setting [2]), 41.26 ± 0.32%; in the experiment with α-glucosidase (setting [3]) it was 44.51 ± 0.19%; in the experiment on α-amylase (setting [4]), 18.76 ± 0.17%; with α-amylase (setting [5]) it was 33.29 ± 0.46%; in the experiment with α-amylase (setting [6]) it was 51.47 ± 0.28%. Besides, the IC50 on α-amylase (Table 9 (MZn series)) is 540 µM.
Take `CN(C)C(=N)NC(=N)N=C(c1ccccc1)c1ccccc1.CN(C)C(=N)NC(=N)N=C(c1ccccc1)c1ccccc1.O.O.O.O.O.O=S(=O)([O-])[O-].[Zn+2]` [MZn7]: the “% Inhibition” value with α-glucosidase (setting [1]) turned out to be 33.67 ± 67%; in the experiment with α-glucosidase (setting [2]) it was 37.61 ± 0.20%; with α-glucosidase (setting [3]) it was 42.54 ± 0.26%; in the experiment on α-amylase (setting [4]) it was 24.32 ± 0.51%; in the experiment with α-amylase (setting [5]) it was 44.52 ± 0.34%; in the experiment on α-amylase (setting [6]), 73.43 ± 0.28%. For the same compound, on α-amylase (Table 9 (MZn series)), the IC50 is 250 µM.
Regarding `COc1cc(C=NC(=N)NC(=N)N(C)C)ccc1O.COc1cc(C=NC(=N)NC(=N)N(C)C)ccc1O.O.O.O.O.O.O=S(=O)([O-])[O-].[Zn+2]` [MZn8], the half-inhibitory concentration (IC50) against α-glucosidase was 511.4 µg/mL; at α-glucosidase (Table 6 (MZn series), read-out: IC50), 650 µM; on α-amylase (Table 9 (MZn series)) it was 900 µM. The “% Inhibition” value in the experiment with α-glucosidase (setting [1]) is 49.24 ± 0.21%; with α-glucosidase (setting [2]), 70.37 ± 0.25%; in the experiment with α-glucosidase (setting [3]) it was 81.54 ± 0.26%; in the experiment on α-amylase (setting [4]), 37.46 ± 0.23%; with α-amylase (setting [5]) it was 68.50 ± 0.40%; with α-amylase (setting [6]), 83.52 ± 0.40%.
Consider `CN(C)C(=N)NC(=N)N=C(c1ccccc1)C(O)c1ccccc1.CN(C)C(=N)NC(=N)N=C(c1ccccc1)C(O)c1ccccc1.O.O.O.O.O.O=S(=O)([O-])[O-].[Zn+2]` (centres unmarked) [MZn9], for which the “% Inhibition” value in the experiment on α-glucosidase (setting [1]) stood at 28.64 ± 0.25%; with α-glucosidase (setting [2]), 37.51 ± 0.25%; with α-glucosidase (setting [3]), 45.37 ± 0.20%; in the experiment on α-amylase (setting [4]), 15.64 ± 0.28%; in the experiment with α-amylase (setting [5]), 38.64 ± 0.40%; in the experiment with α-amylase (setting [6]) it was 59.70 ± 0.46%. For the same compound, the IC50 on α-amylase (Table 9 (MZn series)) turned out to be 700 µM.
For the compound `C=NC(=N)NC(=N)N(C)C` [Met4, N,N-dimethyl-N′-methylidenetriimidodicarbonic diamide], the “% Inhibition” value in the experiment with α-glucosidase (setting [7]) was 17.49 ± 0.29%; in the experiment on α-glucosidase (setting [8]) it was 25.77 ± 0.35%; in the experiment on α-glucosidase (setting [9]), 43.72 ± 0.26%; in the experiment with α-amylase (setting [10]), 15.48 ± 0.15%; in the experiment on α-amylase (setting [11]) it was 37.65 ± 0.19%; in the experiment on α-amylase (setting [12]), 55.48 ± 0.23%. The concentration for half-maximal inhibition (IC50) at α-amylase (Table 7 (Met series)) stood at 700 µM.
Consider `CC(C)=NC(=N)NC(=N)N(C)C` [Met5, N,N-dimethyl-N′-(propan-2-ylidene)triimidodicarbonic diamide], for which the “% Inhibition” value in the experiment with α-glucosidase (setting [7]) stood at 22.85 ± 0.15%; in the experiment with α-glucosidase (setting [8]), 39.43 ± 0.19%; in the experiment on α-glucosidase (setting [9]), 53.44 ± 0.15%; in the experiment on α-amylase (setting [10]), 15.61 ± 0.20%; with α-amylase (setting [11]), 39.48 ± 0.32%; with α-amylase (setting [12]) it was 63.47 ± 0.23%. The IC50 on α-glucosidase (setting [13]) stood at 2000 µM; on α-amylase (Table 7 (Met series)) it was 740 µM.
Regarding `C/C(=N\C(=N)NC(=N)N(C)C)c1ccccc1` [Met6, N,N-dimethyl-N′-[(1E)-1-phenylethylidene]triimidodicarbonic diamide], the “% Inhibition” value in the experiment on α-glucosidase (setting [7]) was 16.41 ± 0.19%; with α-glucosidase (setting [8]), 28.86 ± 0.15%; in the experiment with α-glucosidase (setting [9]) it was 51.47 ± 0.26%; in the experiment on α-amylase (setting [10]), 18.48 ± 0.26%; in the experiment on α-amylase (setting [11]), 33.35 ± 0.20%; with α-amylase (setting [12]), 41.34 ± 0.17%. For the same compound, the IC50 on α-glucosidase (setting [13]) was 1300 µM; at α-amylase (Table 7 (Met series)), 1700 µM.
`CN(C)C(=N)NC(=N)N=C(c1ccccc1)c1ccccc1` [Met7, N′-(diphenylmethylidene)-N,N-dimethyltriimidodicarbonic diamide]: the “% Inhibition” value with α-glucosidase (setting [7]) turned out to be 27.42 ± 0.32%; in the experiment on α-glucosidase (setting [8]) it was 41.84 ± 0.15%; in the experiment on α-glucosidase (setting [9]), 55.77 ± 0.01%; in the experiment on α-amylase (setting [10]) it was 24.25 ± 0.20%; with α-amylase (setting [11]), 34.45 ± 0.26%; in the experiment on α-amylase (setting [12]), 48.33 ± 0.51%. Also, the IC50 amounted to 900 µM at α-glucosidase (setting [13]) and 1400 µM at α-amylase (Table 7 (Met series)).
For the compound `CN(C)C(=N)NC(=N)N=C(c1ccccc1)C(O)c1ccccc1` (centres unmarked) [Met9, N′-[(1Z)-2-hydroxy-1,2-diphenylethylidene]-N,N-dimethyltriimidodicarbonic diamide], the “% Inhibition” value in the experiment with α-glucosidase (setting [7]) is recorded as 10.79 ± 0.10%; with α-glucosidase (setting [8]), 29.86 ± 0.10%; with α-glucosidase (setting [9]), 39.09 ± 0.05%; with α-amylase (setting [10]) it was 5.41 ± 0.20%; with α-amylase (setting [11]), 8.61 ± 0.25%; in the experiment on α-amylase (setting [12]), 19.71 ± 0.46%. Also, the IC50 at α-amylase (Table 7 (Met series)) is 790 µM.
`CN(C)C(=N)N=C(N)N` [Met, N,N-dimethyltriimidodicarbonic diamide, reference compound]: the “% Inhibition” value in the experiment with α-glucosidase (setting [7]) was 41.73 ± 0.10%; with α-glucosidase (setting [8]) it was 52.83 ± 0.11%; in the experiment on α-glucosidase (setting [9]) it was 81.30 ± 0.10%; in the experiment with α-amylase (setting [10]), 55.27 ± 0.20%; with α-amylase (setting [11]), 63.18 ± 0.20%; in the experiment with α-amylase (setting [12]), 85.25 ± 0.32%. Moreover, the half-maximal inhibitory concentration (IC50) stood at 4800 µM on α-glucosidase (setting [13]) and 9400 µM at α-amylase (Table 7 (Met series)).
